Results reported in article PMC7422721 (ACS chemical biology, 2019).

Assays:
[1] = target: T1, RNF4 (Homo sapiens, UniProt P78317); assay: competitive gel-based ABPP against IA-rhodamine labeling of pure RNF4; assay type: binding
T1 sequence (P78317 1-190): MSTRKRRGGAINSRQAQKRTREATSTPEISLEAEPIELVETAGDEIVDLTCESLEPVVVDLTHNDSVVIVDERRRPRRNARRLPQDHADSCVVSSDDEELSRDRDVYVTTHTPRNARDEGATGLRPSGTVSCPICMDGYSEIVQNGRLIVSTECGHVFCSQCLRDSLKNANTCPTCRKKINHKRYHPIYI

[2] = target: T1, RNF4; assay: LC-MS/MS of covalent adduct on purified RNF4; assay type: binding

Row | IC50 [1] | IC50 [2] | Compound
1 | 540 nM | – | Cc1sc2c(c1C)C(c1ccc(Cl)cc1)=N[C@@H](CC(=O)NCCCCOc1ccc(Oc3ccc(N(Cc4ccccc4)C(=O)CCl)cc3)cc1)c1nnc(C)n1-2 [CCW 28-3, CCW 28–3]
2 | – | double digit micromolar | TRH 1–23 [TRH 1-23]
